Type in all cases: cell-based
The subject of assay [1] is caspase-8-mediated apoptotic pathway (Fas induced apoptosis). Kind of assay: Anti-Fas induced apoptosis assay. From the text:
Cellular apoptosis can be induced by the binding of Fas ligand (FasL) to its receptor, CD95 (Fas). Conditions for an assay to measure the effect of compounds on the inhibition of the caspase-8-mediated apoptotic pathway can be found in WO01/42216.

The subject of assay [2] is TNF-alpha. Kind of assay: Inhibition of TNF release from whole blood (LPS induced). The following applies: Homo sapiens, LPS 5 ng/ml, overnight, ELISA. The procedure:
Human blood was freshly drawn from healthy donors and collected in vacutainers. Blood was diluted 1:2 in PBS (tissue culture, pyrogen free) in a sterile bottle and inverted to mix well. Aliquots of 0.5 ml of blood mixture were dispensed into cluster tubes in 96 well format.
Dilutions of the test compounds were prepared in RPMI by taking 100 mM DMSO stocks of the compounds and diluting 1:10 in RPMI medium in eppendorfs, to give a 10 mM stock. 1:5 serial dilutions were prepared from the stock solutions.
LPS was kept at a frozen stock (−20 degrees C.) at 1 mg/ml in PBS and then diluted to 1:10 with RPMI medium and finally diluted in the medium again 1:350. 50 μl of each test compound (first concentration was 100 μM) were added to the blood samples and then stimulated with 10 μl LPS (final concentration in the well is 5 ng/ml). The contents were gently mixed using an 8 well multi-channel pipette and incubated at 37° C. over night. At the end of the incubation time, contents were gently mixed, then spun down at 1000×g for 5 mins at 20° C. The serum supernatants were transferred to a fresh plate without disturbing the RBCs and diluted 1:2 with the diluent RD6C.
TNF-alpha levels of supernatants were assayed using the R+D systems ELISA kit, using R+D systems protocol. Samples were read at 450 nm.

In assay [3] the test system is IL-1β secretion from peripheral blood mononuclear cells. Kind of assay: Inhibition of IL-1β secretion from mixed population of peripheral blood mononuclear cells (PBMC). The following applies: human PBMC, mature IL-1β in supernatant. From the text:
Processing of pre-IL-1β by caspase-1 can be measured in cell culture using a variety of cell sources. Human PBMC obtained from healthy donors provides a mixed population of lymphocyte and mononuclear cells that produce a spectrum of interleukins and cytokines in response to many classes of physiological stimulators. The assay conditions used for inhibition of IL-1β secretion from mixed population of peripheral blood mononuclear cells can be found in WO01/42216.
The inhibitory potency of the compounds can be represented by an IC50 value, which is the concentration of inhibitor at which 50% of the mature IL-1β is detected in the supernatant as compared to the positive controls.

These results are taken from patent US7807659B2, “Caspase inhibitors and uses thereof” (Vertex Pharmaceuticals Incorporated, priority 2001, dated 2010).

Molecules are shown by their SMILES. pIC50: −log10 of the molar value. Square brackets hold non-standard residues; d marks the D form. Peptide text beside a SMILES is read from it. * marks the point of attachment. ξ: configuration not given here. Pip = O=C(O)[C@@H]1CCCCN1; ξD = NC(CC(=O)O)C(=O)O; Bz = O=C(c1ccccc1)*; CH2F = FC* Bounds are passed on as bounds.

`O=C(O)CC(NC(=O)[C@@H]1CCCCN1C(=O)c1ccccc1)C(=O)CF` (stereo partly drawn) [Compound 3, [3S/R,(2S)]-5-Fluoro-4-oxo-3-[1-benzoyl-2-piperidinecarboxamido]-pentanoic acid] (Bz-[Pip]-[ξD]-CH2F) showed a pIC50 in assay [1] of more than 7.30.

On to `O=C(O)CC(NC(=O)[C@@H]1CCCCN1C(=O)c1ccc(-c2cccc(C(F)(F)F)c2)o1)C(=O)CF` (stereo partly drawn) [Compound 10, [3S/R,(2S)]-5-Fluoro-4-oxo-3-[1-[2-(3-trifluoromethyl-phenyl)-furan-4-carbonyl]-2-piperidinecarboxamido]-pentanoic acid], for which the negative logarithm of the IC50 (pIC50) is 5.30 in assay [2] (exact value in brackets), more than 5.22 in assay [2] (stated as bound) and more than 6.30 in assay [3].

The term pIC50 denotes −log10 of the IC50, conventionally taken in molar units. Low values mean a large IC50, high ones a small IC50.
